Experimental data: publication PMC5406460 (Frontiers in Microbiology, 2017)
Converted amounts (≈) assume the structure as drawn. Non-standard residues stand in square brackets, D forms with d. Residues, ends and D or L forms follow the SMILES beside them. ξ: configuration not given here. *: point of attachment. ξF = NC(Cc1ccccc1)C(=O)O; Cbz = O=C(OCc1ccccc1)*; CH2Cl = ClC*

Tests used:
M. bovis BCG = assay: organism not typed; assay type: cell-based; details: 120 h, read-out: M. bovis MIC50
M. tuberculosis H37Rv [1] = assay: Minimum bactericidal concentration (MBC99) by CFU enumeration; assay type: cell-based; details: for MBC: Mycobacterium tuberculosis, H37RV, 120 h, concentration killing 99% of bacteria (100-fold kill), 5 days treatment
ClpP1P2 = ClpP1P2 (Mycobacterium bovis, UniProt P0A527+P63784); assay: cell-based; assay type: cell-based, M. bovis BCG; details: for IC50: 24 h, read-out: Bacterial Clp IC50
M. tuberculosis H37Rv [2] = assay: Turbidity-based growth inhibition (MIC50), M. tuberculosis H37Rv; assay type: cell-based; details: Mycobacterium tuberculosis, 120 h, 50% growth inhibition, 5 days, OD600
bacterial proteasome = bacterial proteasome (Mycobacterium bovis, UniProt A1KKF3); assay: cell-based; parameters: species or system M. bovis BCG
human proteasome = human proteasome (Homo sapiens, UniProt P28074); assay: cell-based
in vitro = details: human

Sequence of bacterial proteasome (A1KKF3 whole entry, looked up): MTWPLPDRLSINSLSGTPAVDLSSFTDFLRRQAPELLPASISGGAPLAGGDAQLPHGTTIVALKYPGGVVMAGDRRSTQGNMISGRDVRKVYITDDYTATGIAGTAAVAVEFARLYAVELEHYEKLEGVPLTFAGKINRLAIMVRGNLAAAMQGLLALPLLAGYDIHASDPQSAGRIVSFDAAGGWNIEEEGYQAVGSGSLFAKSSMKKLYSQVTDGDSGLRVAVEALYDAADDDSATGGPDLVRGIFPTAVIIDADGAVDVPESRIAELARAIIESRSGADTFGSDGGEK

| Structure (SMILES) | MIC50 (M. bovis BCG) | MBC (M. tuberculosis H37Rv [1]) | IC50 (ClpP1P2) | MIC50 (M. tuberculosis H37Rv [2]) | IC50 (bacterial proteasome) | IC50 (human proteasome) | reduction in bactericidal potency against M. tuberculosis (M. tuberculosis H37Rv [1]; compared to Bortezomib (MBC99)) | loss of potency against ClpP1P2 compared to Bortezomib (ClpP1P2; 25 vs. 1.6 μM) | selectivity ratio (in vitro) |
| --- | --- | --- | --- | --- | --- | --- | --- | --- | --- |
| CC(C)C[C@H](NC(=O)[C@H](Cc1ccccc1)NC(=O)c1cnccn1)B(O)O [Pyr-FL-BA, Pyrazine-Phenylalanine-Leucine-Boronic acid] | 0.8 µM (≈ 0.307 µg/mL) | 50 µM (≈ 19.2 µg/mL) | 1.6 µM | 4 µM (≈ 1.54 µg/mL) | 0.8 µM | – | – | – | – |
| O=C(CNC(=O)OCc1ccccc1)NCC(=O)NC(Cc1ccccc1)C(=O)CCl (stereo not drawn) [Z-GGF-CMK, Carboxybenzyl-glycine-glycine-phenylalanine-CMK] (Cbz-Gly-Gly-[ξF]-CH2Cl) | 30 µM (≈ 13.4 µg/mL) | – | 50 µM | 30 µM (≈ 13.4 µg/mL) | 50 µM | > 500 µM | – | – | – |
| CC(C)C[C@H](NC(=O)CNC(=O)OCc1ccccc1)C(=O)NC(Cc1ccccc1)C(=O)CCl (stereo partly drawn) [Z-GLF-CMK, Carboxybenzyl-glycine-leucine-phenylalanine-CMK] (Cbz-Gly-Leu-[ξF]-CH2Cl) | 20 µM (≈ 10 µg/mL) | 200 µM (≈ 100 µg/mL) | 25 µM | 20 µM (≈ 10 µg/mL) | 35 µM | > 500 µM | – | – | – |
| CC(C)C[C@H](NC(=O)[C@H](Cc1ccccc1)NC(=O)c1cnccn1)C(=O)CCl [Pyr-FL-CMK, N-((S)-1-(((S)-1-chloro-5-methyl-2-oxohexan-3-yl)amino)-1-oxo-3-phenylpropan-2-yl)pyrazine-2-carboxamide] | 20 µM (≈ 8.34 µg/mL) | 100 µM (≈ 41.7 µg/mL) | 25 µM | 25 µM (≈ 10.4 µg/mL) | 25 µM | > 500 µM | two-fold | ~15 fold | ≥ 20 |
